Data on 25 molecules can be found in patent publication US20230107642A1 (Erasca, Inc., priority 2020, published 2023).

This experiment deals with T1, K-Ras G12C (Homo sapiens, UniProt P01116, G12C).
T1 construct: This protein contained 188 amino acids in total, including an N-terminal 6-Histidine tag; made in house; host or cells: E. coli BL21
Put plainly: CAF assay (% CAF; method in Example 7, not in this part). The conditions noted are these: 10 uM, 1 h; Table 3. The experiment is classed as binding.

Take `C=CC(=O)N1CCN(c2nc(=O)n3c4c(c(-c5ccc(F)cc5)c(Cl)cc24)SC[C@H]3CC2CCN(CC(F)F)CC2)[C@@H](C)C1` [Example 68, (R)-7-((S)-4-acryloyl-2-methylpiperazin-1-yl)-9-chloro-3-((1-(2,2-difluoroethyl)piperidin-4-yl)methyl)-10-(4-fluorophenyl)-2,3-dihydro-5H-[1,4]thiazino[2,3,4-ij]quinazolin-5-one]: the “% CAF @ 10 uM, 1h” value is given as 87%.
With `C=CC(=O)N1CCN(c2nc(=O)n3c4c(c(-c5ccc(F)cc5F)c(Cl)cc24)SC[C@H]3CC2CCN(CC(F)F)CC2)[C@@H](C)C1` [Example 69, (3R)-7-((S)-4-acryloyl-2-methylpiperazin-1-yl)-9-chloro-3-((1-(2,2-difluoroethyl)piperidin-4-yl)methyl)-10-(2,4-difluorophenyl)-2,3-dihydro-5H-[1,4]thiazino[2,3,4-ij]quinazolin-5-one], the “% CAF @ 10 uM, 1h” value is 96%.
To `C=CC(=O)N1CCN(c2nc(=O)n3c4c(c(-c5cccc6ccncc56)c(Cl)cc24)SCC3)[C@@H](C)C1` [Example 71, 7-((S)-4-acryloyl-2-methylpiperazin-1-yl)-9-chloro-10-(isoquinolin-8-yl)-2,3-dihydro-5H-[1,4]thiazino[2,3,4-ij]quinazolin-5-one] belongs 87.8%; to `C=CC(=O)N1C2CN(C(C)=O)CC1CN(c1nc(=O)n3c4c(c(-c5ccc(F)cc5F)c(Cl)cc14)SCC3)C2` [Example 72], 80.5%; to `C=CC(=O)N1CCN(c2nc(=O)n3c4c(c(-c5cc(F)cc(Cl)c5)c(Cl)cc24)SCC3)[C@@H](C)C1` [Example 73, (S)-7-(4-acryloyl-2-methylpiperazin-1-yl)-9-chloro-10-(3-chloro-5-fluorophenyl)-2,3-dihydro-5H-[1,4]thiazino[2,3,4-ij]quinazolin-5-one], 73%.
To `C=CC(=O)N1CCN(c2nc(=O)n3c4c(c(-c5cccc(F)c5F)c(Cl)cc24)SCC3)[C@@H](C)C1` [Example 74, 7-((S)-4-acryloyl-2-methylpiperazin-1-yl)-9-chloro-10-(2,3-difluorophenyl)-2,3-dihydro-5H-[1,4]thiazino[2,3,4-ij]quinazolin-5-one] belongs 95.6%; to `C=CC(=O)N1CCN(c2nc(=O)n3c4c(c(-c5ccc(F)cc5F)c(Cl)cc24)SC(C)(C)C3)[C@@H](C)C1` [Example 75, 7-((S)-4-acryloyl-2-methylpiperazin-1-yl)-9-chloro-10-(2,4-difluorophenyl)-2,2-dimethyl-2,3-dihydro-5H-[1,4]thiazino[2,3,4-ij]quinazolin-5-one], 86.8%; to `C=CC(=O)N1CCN(c2nc(=O)n3c4c(c(-c5ccc(F)cc5F)c(Cl)cc24)SCC3)C[C@H]1C#N` [Example 77, (2S)-1-acryloyl-4-(9-chloro-10-(2,4-difluorophenyl)-5-oxo-2,3-dihydro-5H-[1,4]thiazino[2,3,4-ij]quinazolin-7-yl)piperazine-2-carbonitrile], 82%.
To `C=C(F)C(=O)N1CCN(c2nc(=O)n3c4c(c(-c5ccc(Cl)c(F)c5)c(Cl)cc24)SCC3)[C@@H](C)C1` [Example 78, (S)-9-chloro-10-(4-chloro-3-fluorophenyl)-7-(4-(2-fluoroacryloyl)-2-methylpiperazin-1-yl)-2,3-dihydro-5H-[1,4]thiazino[2,3,4-ij]quinazolin-3-one] belongs 6.7%; to `C[C@H]1CN(C(=O)/C=C/C(F)(F)F)CCN1c1nc(=O)n2c3c(c(-c4ccc(Cl)c(F)c4)c(Cl)cc13)SCC2` [Example 79, (S,E)-9-chloro-10-(4-chloro-3-fluorophenyl)-7-(2-methyl-4-(4,4,4-trifluorobut-2-enoyl)piperazin-1-yl)-2,3-dihydro-5H-[1,4]thiazino[2,3,4-ij]quinazolin-5-one], 92%.
Regarding `C[C@H]1CN(C(=O)/C=C/C(F)F)CCN1c1nc(=O)n2c3c(c(-c4ccc(Cl)c(F)c4)c(Cl)cc13)SCC2` [Example 80, (S,E)-9-chloro-10-(4-chloro-3-fluorophenyl)-7-(4-(4,4-difluorobut-2-enoyl)-2-methylpiperazin-1-yl)-2,3-dihydro-5H-[1,4]thiazino[2,3,4-ij]quinazolin-5-one], the “% CAF @ 10 uM, 1h” value is on record as 93.5%.
With `N#CC[C@H]1CN(c2nc(=O)n3c4c(c(-c5ccc(F)cc5F)c(Cl)cc24)SCC3)CCN1C(=O)/C=C/C(F)(F)F` [Example 81, 2-((2S)-4-(9-chloro-10-(2,4-difluorophenyl)-5-oxo-2,3-dihydro-5H-[1,4]thiazino[2,3,4-ij]quinazolin-7-yl)-1-((E)-4,4,4-trifluorobut-2-enoyl)piperazin-2-yl)acetonitrile], the “% CAF @ 10 uM, 1h” value came to 89%.
To `C=CC(=O)N1CCN(c2nc(=O)n3c4c(c(-c5cc(Cl)c(F)cc5F)c(Cl)cc24)SCC3)[C@@H](C)C1` [Example 82, 7-((S)-4-acryloyl-2-methylpiperazin-1-yl)-9-chloro-10-(5-chloro-2,4-difluorophenyl)-2,3-dihydro-5H-[1,4]thiazino[2,3,4-ij]quinazolin-5-one] belongs 85.8%; to `C=CC(=O)N1CCN(c2nc(=O)n3c4c(c(-c5ccc(F)c(C#N)c5)c(Cl)cc24)SCC3)[C@@H](C)C1` [Example 83, (S)-5-(7-(4-acryloyl-2-methylpiperazin-1-yl)-9-chloro-5-oxo-2,3-dihydro-5H-[1,4]thiazino[2,3,4-ij]quinazolin-10-yl)-2-fluorobenzonitrile], 85.3%.
With `C=CC(=O)N1C2CN(c3nc(=O)n4c5c(c(-c6ccc(F)cc6F)c(Cl)cc35)SCC4)CC1CS(=O)(=O)C2` [Example 84, 7-(9-acryloyl-3,3-dioxido-3-thia-7,9-diazabicyclo[3.3.1]nonan-7-yl)-9-chloro-10-(2,4-difluorophenyl)-2,3-dihydro-5H-[1,4]thiazino[2,3,4-ij]quinazolin-5-one], the “% CAF @ 10 uM, 1h” value came out at 43.8%.
As for `C=CC(=O)N1CCN(c2nc(=O)n3c4c(c(-c5ccc(F)c(C(=O)NC)c5)c(Cl)cc24)SCC3)[C@@H](C)C1` [Example 85, (S)-5-(7-(4-acryloyl-2-methylpiperazin-1-yl)-9-chloro-5-oxo-2,3-dihydro-5H-[1,4]thiazino[2,3,4-ij]quinazolin-10-yl)-2-fluoro-N-methylbenzamide], the “% CAF @ 10 uM, 1h” value is listed as 60.3%.
`C=CC(=O)N1CCN(c2nc(=O)n3c4c(c(-c5cccc6cnccc56)c(Cl)cc24)SCC3)[C@@H](C)C1` [Example 86, 7-((S)-4-acryloyl-2-methylpiperazin-1-yl)-9-chloro-10-(isoquinolin-5-yl)-2,3-dihydro-5H-[1,4]thiazino[2,3,4-ij]quinazolin-5-one]: the “% CAF @ 10 uM, 1h” value was found to be 76.1%.
To `C=CC(=O)N1CCN(c2nc(=O)n3c4c(c(-c5ccc(F)cc5F)c(Cl)cc24)SC[C@H]3CC2CCN(C)CC2)[C@@H](C)C1` [Example 87, (3R)-7-((S)-4-acryloyl-2-methylpiperazin-1-yl)-9-chloro-10-(2,4-difluorophenyl)-3-((1-methylpiperidin-4-yl)methyl)-2,3-dihydro-5H-[1,4]thiazino[2,3,4-ij]quinazolin-5-one] belongs 82.4%; to `C=CC(=O)N1CCN(c2nc(=O)n3c4c(c(-c5ccc(F)cc5F)c(Cl)cc24)SCC3)C[C@@H]1CC#N` [Example 88, 2-((2S)-1-acryloyl-4-(9-chloro-10-(2,4-difluorophenyl)-5-oxo-2,3-dihydro-5H-[1,4]thiazino[2,3,4-ij]quinazolin-7-yl)piperazin-2-yl)acetonitrile], 90.2%; to `C=CC(=O)N1CCN(c2nc(=O)n3c4c(c(-c5ccc(Cl)c(F)c5)c(Cl)cc24)SCC3)[C@@H](C)C1` [Example 89, (S)-7-(4-acryloyl-2-methylpiperazin-1-yl)-9-chloro-10-(4-chloro-3-fluorophenyl)-2,3-dihydro-5H-[1,4]thiazino[2,3,4-ij]quinazolin-5-one], 94.5%.
On to `C=CC(=O)N1CCN(c2nc(=O)n3c4c(c(-c5cc(F)c(F)c(F)c5)c(Cl)cc24)SCC3)[C@@H](C)C1` [Example 90, (S)-7-(4-acryloyl-2-methylpiperazin-1-yl)-9-chloro-10-(3,4,5-trifluorophenyl)-2,3-dihydro-5H-[1,4]thiazino[2,3,4-ij]quinazolin-5-one], for which the “% CAF @ 10 uM, 1h” value is recorded as 78.8%.
To `C=CC(=O)N1CCN(c2nc(=O)n3c4c(c(-c5c(F)cc(F)cc5F)c(Cl)cc24)SC[C@H]3CC2CCN(C)CC2)[C@@H](C)C1` [Example 91, (R)-7-((S)-4-acryloyl-2-methylpiperazin-1-yl)-9-chloro-3-((1-methylpiperidin-4-yl)methyl)-10-(2,4,6-trifluorophenyl)-2,3-dihydro-5H-[1,4]thiazino[2,3,4-ij]quinazolin-5-one] belongs 94.8%; to `C=CC(=O)N1CCN(c2nc(=O)n3c4c(c(-c5c(F)cc(F)cc5F)c(Cl)cc24)SC[C@@H]3CC2CCN(C)CC2)[C@@H](C)C1` [Example 92, (S)-7-((S)-4-acryloyl-2-methylpiperazin-1-yl)-9-chloro-3-((1-methylpiperidin-4-yl)methyl)-10-(2,4,6-trifluorophenyl)-2,3-dihydro-5H-[1,4]thiazino[2,3,4-ij]quinazolin-5-one], 96.7%.
On to `C[C@H]1CN(C(=O)/C=C/C(F)(F)F)CCN1c1nc(=O)n2c3c(c(-c4ccc(F)c(Cl)c4)c(Cl)cc13)SCC2` [Example 93, (S,E)-9-chloro-10-(3-chloro-4-fluorophenyl)-7-(2-methyl-4-(4,4,4-trifluorobut-2-enoyl)piperazin-1-yl)-2,3-dihydro-5H-[1,4]thiazino[2,3,4-ij]quinazolin-5-one], for which the “% CAF @ 10 uM, 1h” value came to 95%.
To `C=CC(=O)N1CCN(c2nc(=O)n3c4c(c(-c5ccc(F)cc5F)c(Cl)cc24)SC[C@@H]3CCCN2C[C@@H]3C[C@H]2CO3)[C@@H](C)C1` [Example 94, (3S)-3-(3-((1S,4S)-2-oxa-5-azabicyclo[2.2.1]heptan-5-yl)propyl)-7-((S)-4-acryloyl-2-methylpiperazin-1-yl)-9-chloro-10-(2,4-difluorophenyl)-2,3-dihydro-5H-[1,4]thiazino[2,3,4-ij]quinazolin-5-one] belongs 94.7%.
